Like-named read-outs stand apart in the source and are kept apart here.
Key:
[1] = test system: HepG2 cell; assay: Cellular lipid-lowering level detection (oleic acid-induced cellular hyperlipidemia model, triglyceride content); type: cell-based, human; settings: HepG2 cells, drug treatment 24 h
Experimental: The lipid-lowering ability at the cellular level was confirmed by detecting triglyceride levels of hyperlipidemia cells to determine whether the compounds have the ability to improve hyperlipidemia at the cellular level (J. Med. Chem. 2021, 64(5), 2815-2828). This experiment adopted a human liver cancer cell, HepG2 cell. After a cellular hyperlipidemia model was induced by oleic acid, the cells were incubated and treated with a drug for 24 h. Then, the cells were lysed by ultrasonication, and the content of triglyceride was detected according to the instructions of a triglyceride kit.

[2] = biological target: FIH (Homo sapiens (Human), UniProt Q9NWT6); assay: Inhibitory activities of compounds on FIH, fluorescence polarization (FP assay); type: binding
FIH, sequence (Q9NWT6 whole entry): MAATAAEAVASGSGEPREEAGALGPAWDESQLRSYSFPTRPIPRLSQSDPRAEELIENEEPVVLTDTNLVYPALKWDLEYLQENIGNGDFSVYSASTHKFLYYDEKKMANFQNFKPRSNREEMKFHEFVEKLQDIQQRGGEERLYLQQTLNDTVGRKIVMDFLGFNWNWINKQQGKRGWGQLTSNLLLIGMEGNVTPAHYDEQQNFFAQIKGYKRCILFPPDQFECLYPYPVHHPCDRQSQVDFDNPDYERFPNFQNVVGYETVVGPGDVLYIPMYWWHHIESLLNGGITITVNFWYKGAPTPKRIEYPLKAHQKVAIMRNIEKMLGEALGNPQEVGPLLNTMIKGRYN
Experimental: The compounds were serially diluted in an assay buffer to 12 concentration gradients, and then 20 μL of diluted 300 nM FIH protein was added to each well. […] The plate was incubated at room temperature for 1 h and scanned with a Synergy plate reader. The excitation wavelength was set to 485 nm, and the emission wavelength was set to 535 nm. […] The obtained data were imported into Graphpad prism 8.0 for analysis and fit to obtain IC50 values.

[3] = FP competition with FITC-HIF-1α 788-822, Table 1, read-out: FIH IC50
[4] = Table 2, comparison compounds, read-out: FIH (IC50 nM), compound where position 5 of pyridine is linked to other structures

Structure (SMILES) | Whether or not it can improve cellular hyperlipidemia [1] | IC50 [2, 3] [nM] | IC50 [2, 4] [nM]
Cc1ccccc1-c1cc(-c2cnc(C(=O)NCC(=O)O)c(O)c2)on1 [Compound I-13, 3-Hydroxy-5-(3-o-tolylisoxazol-5-yl)picolinoyl glycine] | Yes | – | –
O=C(O)CNC(=O)c1ncc(-c2cc(-c3ccc(C(F)(F)F)cc3)no2)cc1O [Compound I-23, 3-Hydroxy-5-(3-p-trifluoromethylphenylisoxazol-5-yl)picolinoyl glycine] | Yes | – | –
Cc1nc(C(=O)NCC(=O)O)c(O)cc1-c1cc(-c2ccccc2)no1 [Compound I-28, 3-Hydroxy-5-(3-phenylisoxazol-5-yl)-6-methylpicolinoyl glycine] | Yes | 991 ± 12.3 | –
O=C(O)CNC(=O)c1ncc(-c2cc(-c3ccc4ccccc4c3)no2)cc1O [Compound I-12, 3-Hydroxy-5-(3-(naphthyl-2-yl)isoxazol-5-yl)picolinoyl glycine] | Yes | – | –
O=C(O)CNC(=O)c1ncc(-c2onc(-c3ccccc3)c2C2CC2)cc1O [Compound I-31, 3-Hydroxy-5-(4-cyclopropyl-3-phenylisoxazol-5-yl)picolinoyl glycine] | Yes | 1920 ± 14.5 | –
O=C(O)CNC(=O)c1ncc(-c2cc(-c3cccc(Br)c3)no2)cc1O [Compound I-6, 3-Hydroxy-5-(3-m-bromophenylisoxazol-5-yl)picolinoyl glycine] | Yes | – | –
CC(C)(C)c1cccc(-c2cc(-c3cnc(C(=O)NCC(=O)O)c(O)c3)on2)c1 [Compound I-27, 3-Hydroxy-5-(3-m-tert-butylphenylisoxazol 5-yl)picolinoyl glycine] | Yes | 782 ± 9.6 | –
O=C(O)CNC(=O)c1ncc(-c2cc(C3CCCCC3)no2)cc1O [Compound I-7, 3-Hydroxy-5-(3-cyclohexylisoxazol-5-yl)picolinoyl glycine] | Yes | – | –
O=C(O)CNC(=O)c1ncc(-c2cn(-c3ccccc3)nn2)cc1O [reference compound] | – | – | 19590 ± 43.8
Cc1ccc(-c2cc(-c3cnc(C(=O)NCC(=O)O)c(O)c3)on2)cc1 [Compound I-14, 3-Hydroxy-5-(3-p-tolylisoxazol-5-yl)picolinoyl glycine] | Yes | – | –
O=C(O)CNC(=O)c1ncc(-c2cc(-c3cc(F)cc(F)c3)no2)cc1O [Compound I-26, 3-Hydroxy-5-(3-m-difluorophenylisoxazol-5-yl)picolinoyl glycine] | Yes | – | –
O=C(O)CNC(=O)c1ncc(-c2cc(-c3cc(Cl)cc(Cl)c3)no2)cc1O [Compound I-19, 3-Hydroxy-5-(3-m-dichlorophenylisoxazol-5-yl)picolinoyl glycine] | Yes | – | –
O=C(O)CNC(=O)c1ncc(-c2cc(-c3ccccc3Br)no2)cc1O [Compound I-20, 3-Hydroxy-5-(3-o-bromophenylisoxazol-5-yl)picolinoyl glycine] | Yes | – | –
O=C(O)CNC(=O)c1ncc(-c2cc(-c3ccc(Cl)cc3)no2)cc1O [Compound I-18, 3-Hydroxy-5-(3-p-chlorophenylisoxazol-5-yl)picolinoyl glycine] | Yes | – | –
N#Cc1cccc(-c2cc(-c3cnc(C(=O)NCC(=O)O)c(O)c3)on2)c1 [Compound I-9, 3-Hydroxy-5-(3-m-cyanophenylisoxazol-5-yl)picolinoyl glycine] | Yes | – | –
O=C(O)CNC(=O)c1ncc(-c2cc(-c3cccc(F)c3)no2)cc1O [Compound I-16, 3-Hydroxy-5-(3-m-fluorophenylisoxazol-5-yl)picolinoyl glycine] | Yes | – | –
O=C(O)CNC(=O)c1ncc(-c2cc(-c3ccccc3C(F)(F)F)no2)cc1O [Compound I-22, 3-Hydroxy-5-(3-o-trifluoromethylphenylisoxazol-5-yl)picolinoyl glycine] | Yes | – | –
O=C(O)CNC(=O)c1ncc(-c2cc(-c3cccc(C(F)(F)F)c3)no2)cc1O [Compound I-10, 3-Hydroxy-5-(3-m-trifluoromethylphenylisoxazol-5-yl)picolinoyl glycine] | Yes | – | –
O=C(O)CNC(=O)c1ncc(-c2cc(-c3ccccc3)co2)cc1O [reference compound] | – | – | 9024 ± 36.1

Structure (SMILES) | Whether or not it can improve cellular hyperlipidemia [1] | IC50 [2, 3] [nM] | IC50 [2, 4] [nM]
O=C(O)CNC(=O)c1ncc(-c2cc(C3CC3)no2)cc1O [Compound I-8, 3-Hydroxy-5-(3-cyclopropylisoxazol-5-yl)picolinoyl glycine] | Yes | – | –
O=C(O)CNC(=O)c1ncc(-c2cc(-c3ccc(F)cc3)no2)cc1O [Compound I-25, 3-Hydroxy-5-(3-p-fluorophenylisoxazol-5-yl)picolinoyl glycine] | Yes | 540 ± 1.8 | –
O=C(O)CNC(=O)c1ncc(-c2cc(-c3ccccc3)no2)cc1O [Compound I-1, 3-Hydroxy-5-(3-phenylisoxazol-5-yl)picolinoyl glycine] | Yes | – | –
O=C(O)CNC(=O)c1ncc(-c2cc(-c3ccccc3Cl)no2)cc1O [Compound I-17, 3-Hydroxy-5-(3-o-chlorophenylisoxazol-5-yl)picolinoyl glycine] | Yes | – | –
O=C(O)CNC(=O)c1ncc(-c2cc(-c3cccc4ccccc34)no2)cc1O [Compound I-11, 3-Hydroxy-5-(3-(naphthyl-1-yl)isoxazol-5-yl)picolinoyl glycine] | Yes | – | –
O=C(O)CNC(=O)c1ncc(-c2cc(-c3ccccc3)n[nH]2)cc1O [reference compound] | – | – | 22250 ± 56.3
CC(C)(C)c1c(-c2ccccc2)noc1-c1cnc(C(=O)NCC(=O)O)c(O)c1 [Compound I-30, 3-Hydroxy-5-(4-tert-butyl-3-phenylisoxazol-5-yl)picolinoyl glycine] | Yes | 1210 ± 22.9 | –
O=C(O)CNC(=O)c1ncc(-c2cc(-c3cccc(Cl)c3)no2)cc1O [Compound I-5, 3-Hydroxy-5-(3-m-chlorophenylisoxazol-5-yl)picolinoyl glycine] | Yes | – | –
O=C(O)CNC(=O)c1ncc(-c2cc(-c3ccc(Br)cc3)no2)cc1O [Compound I-21, 3-Hydroxy-5-(3-p-bromophenylisoxazol-5-yl)picolinoyl glycine] | Yes | – | –
Cc1cccc(-c2cc(-c3cnc(C(=O)NCC(=O)O)c(O)c3)on2)c1 [Compound I-2, 3-Hydroxy-5-(3-m-tolylisoxazol-5-yl)picolinoyl glycine] | Yes | – | –
O=C(O)CNC(=O)c1ncc(-c2onc(-c3ccccc3)c2C2CCCCC2)cc1O [Compound I-32, 3-Hydroxy-5-(4-cyclohexyl-3-phenylisoxazol-5-yl) picolinoyl glycine] | Yes | 998 ± 10.9 | –
O=C(O)CNC(=O)c1ncc(-c2cc(-c3ccccc3F)no2)cc1O [Compound I-24, 3-Hydroxy-5-(3-o-fluorophenylisoxazol-5-yl)picolinoyl glycine] | Yes | 799 ± 8.6 | –
O=C(O)CNC(=O)c1ncc(-c2cc(-c3ccc(-c4ccccc4)cc3)no2)cc1O [Compound I-3, 3-Hydroxy-5-(3-biphenylisoxazol-5-yl)picolinoyl glycine] | Yes | – | –
Cc1cc(C)cc(-c2cc(-c3cnc(C(=O)NCC(=O)O)c(O)c3)on2)c1 [Compound I-15, 3-Hydroxy-5-(3-m-dimethylphenylisoxazol-5-yl)picolinoyl glycine] | Yes | – | –
O=C(O)CNC(=O)c1ncc(-c2onc(-c3ccccc3)c2-c2ccccc2)cc1O [Compound I-33, 3-Hydroxy-5-(3,4-diphenylisoxazol-5-yl)picolinoyl glycine] | Yes | 787 ± 9.5 | –
O=C(O)CNC(=O)c1ncc(-c2cccc(Cl)c2)cc1O [AKB-6548, reference compound] | No | – | –
COc1cccc(-c2cc(-c3cnc(C(=O)NCC(=O)O)c(O)c3)on2)c1 [Compound I-4, 3-Hydroxy-5-(3-m-methoxyphenylisoxazol-5-yl)picolinoyl glycine] | Yes | – | –
Cc1c(-c2ccccc2)noc1-c1cnc(C(=O)NCC(=O)O)c(O)c1 [Compound I-29, 3-Hydroxy-5-(4-methyl-3-phenylisoxazol-5-yl)picolinoyl glycine] | Yes | 1010 ± 25.1 | –

From patent US20240376089A1, “3-HYDROXY-5-(ISOXAZOL-5-YL) PYRIDINE FORMYLGLYCINE COMPOUNDS, PREPARATION METHOD, PHARMACEUTICAL COMPOSITION AND USE” (CHINA PHARMACEUTICAL UNIVERSITY, priority 2022, published 2024)
